Test results: patent publication EP4759807A1, “PROTEOLYSIS TARGETING CHIMERA COMPOUND FOR DEGRADING IRAK4 AND USE THEREOF” (Shenzhen Zhongge Biological Technology Co., Ltd., priority 2023, dated 2025)
Read-outs that look alike come from different tables or passages of the source.

Target: T1, IRAK4 (Homo sapiens, UniProt Q9NWZ3)
T1 sequence (Q9NWZ3 1-460): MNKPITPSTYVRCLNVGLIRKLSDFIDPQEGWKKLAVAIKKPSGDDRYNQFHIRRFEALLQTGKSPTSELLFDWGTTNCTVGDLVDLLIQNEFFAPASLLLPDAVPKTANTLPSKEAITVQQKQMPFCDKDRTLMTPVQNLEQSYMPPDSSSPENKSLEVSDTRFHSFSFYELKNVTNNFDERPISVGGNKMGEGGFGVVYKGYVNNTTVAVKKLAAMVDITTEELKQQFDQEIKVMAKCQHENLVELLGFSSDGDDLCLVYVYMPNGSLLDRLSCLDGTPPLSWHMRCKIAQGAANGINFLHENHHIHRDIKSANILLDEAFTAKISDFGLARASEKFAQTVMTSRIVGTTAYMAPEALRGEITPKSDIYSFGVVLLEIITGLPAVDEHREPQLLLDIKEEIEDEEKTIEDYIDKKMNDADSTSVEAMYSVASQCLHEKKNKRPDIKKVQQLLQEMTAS
Assay: Hibit fluorescence detection of proteolysis (IRAK4-HiBiT in HEK293T cells)
Assay type: cell-based
Design: host or cells: HEK293T (ATCC)
Settings: for Dmax: HEK-293T
Description: Utilizing HiBiT tag technology, the HiBiT tag-containing sequence (Seq. ID. No. 1, Beijing Tsingke Biotech Co., Ltd.) was connected to the IRAK4 plasmid (Seq. ID. No. 2, Beijing Tsingke Biotech Co., Ltd.), and the plasmid was transfected into HEK293T cells (ATCC). […] The 6-well plate that was incubated overnight was taken out. After the plate was left at room temperature for 15 min, the obtained mixture was added dropwise to the 6-well plate. […] Culture was performed at 37°C and 5% CO2 for 24 h. The 384-well plate was taken out and equilibrated to room temperature. 40 µL of Nano-Glo® HiBiT Lytic Detection System (Promega N3030) was added to each well and incubated at room temperature for 15 min. […] Prism 9.3 software was used to perform fitting analysis for data, and non-linear fitting (non-liner inhibitor (Bell-shaped)) and four parameters (4 parameter) were used, and the parameters was as follows: Span1 = Plateau1−Dip [formula] Span2 = Plateau2−Dip [formula] Section1 = Span1/(1+10^(∧)((LogEC50_1−X)*nH1)) [formula] Section2 = Span2/(1+10^(∧)((X−LogEC50_2)*nH2)) [formula]
The equation was as follows: Y=Dip+Section1+Section2. • Seq. ID. No. 1 ([…]), other DNA, synthetic construct, sequence length 33; • Seq. ID. No. 2 [formula]

[1] = IRAK4-HiBiT, HEK293T cells, 24 h, read-out: DC50
[2] = IRAK4-HiBiT, HEK293T cells, 24 h

Row | Dmax (IRAK4-HiBiT, HEK293T cells, 24 h, read-out: Dmax) [%] | SMILES | DC50 [1] [nM] | Dmax [%] | DC50 [2] [nM]
1 | – | Cl.Cn1c(=O)n(C2CCC(=O)NC2=O)c2cccc(N3CCN(C4CCN(C[C@H]5CC[C@H](n6cc(-n7cc(-c8cnn9ccc(N%10CCNCC%10)nc89)nn7)c(C(F)F)n6)CC5)CC4)CC3)c21 (some centres unmarked) [Example 131, 3-(4-(4-(1-(1r,4r)-4-(3-difluoromethyl)-4-(4-(5-(piperazin-1-yl)pyrazolo[1,5-a]pyrimidin-3-yl)-1H-1,2,3-triazol-1-yl)-1H-pyrazol-1-yl)cyclohexyl)methyl)piperidin-4-yl)piperazin-1-yl)-3-methyl-2-oxo-2,3-dihydro-1H-benzoimidazol-1-yl)piperidine-2,6-dione hydrochloride] | 0.5 to 1 | – | –
2 | – | Cn1c(=O)n(C2CCC(=O)NC2=O)c2cccc(N3CCN(C[C@H]4CC[C@H](n5cc(-n6cc(-c7cnn8ccc(N9CCC(C)(O)CC9)nc78)nn6)c(C(F)F)n5)CC4)CC3)c21 (some centres unmarked) [Compound 235] | < 0.5 | > 80 | –
3 | 70 to 80 | Cn1c(=O)n(C2CCC(=O)NC2=O)c2cccc(N3CCC(CN4CCC(n5cc(-n6cc(-c7ccc8cc(C(N)=O)cnn78)nn6)c(C(F)F)n5)CC4)CC3)c21 (centres unmarked) [Example 74, 7-(1-(3-(difluoromethyl)-1-(1-((1-(1-(2,6-dioxopiperidin-3-yl)-3-methyl-2-oxo-2,3-dihydro-1H-benzo[d]imidazol-4-yl)piperidin-4-yl)methyl)piperidin-4-yl)-1H-pyrazol-4-yl)-1H-1,2,3-triazol-4-yl)pyrrolo[1,2-b]pyridazine-3-carboxamide] | < 0.5 | – | –
4 | – | Cn1c(=O)n(C2CCC(=O)NC2=O)c2cccc(N3C4CCC3CN(C[C@H]3CC[C@H](n5cc(-n6cc(-c7ccc8cc(C(N)=O)cnn78)nn6)c(C(F)F)n5)CC3)C4)c21 (some centres unmarked) [Example 92, 7-(1-(3-(difluoromethyl)-1-((1r,4r)-4-(8-(1-(2,6-dioxopiperidin-3-yl)-3-methyl-2-oxo-2,3-dihydro-1H-benzo[d]imidazol-4-yl)-3,8-diazabicyclo[3.2.1]oct-3-yl)methyl)cyclohexyl-1H-pyrazol-4-yl)-1H-1,2,3-triazol-4-yl)pyrrolo[1,2-b]pyridazine-3-carboxamide] | – | > 80 | 1 to 5
5 | – | Cn1c(=O)n(C2CCC(=O)NC2=O)c2cccc(CCC(=O)N3CCC4(CC3)CN(C[C@H]3CC[C@H](n5cc(-n6cc(-c7cnn8ccc(N9CCOCC9)nc78)nn6)c(C(F)F)n5)CC3)C4)c21 (some centres unmarked) [Example 16] | – | 60 to 70 | < 0.5
6 | – | NC(=O)c1cnn2c(-c3cn(-c4cn([C@H]5CC[C@H](CN6CCN(c7ccc8c(c7)CN(C7CCC(=O)NC7=O)C8=O)CC6)CC5)nc4C(F)F)nn3)ccc2c1 (some centres unmarked) [Example 72, 7-(1-(3-(difluoromethyl)-1-((1r,4r)-4-((4-(2-(2,6-dioxopiperidin-3-yl)-1-oxoisoindolin-5-yl)piperazin-1-yl)methyl)cyclohexyl)-1H-pyrazol-4-yl)-1H-1,2,3-triazol-4yl)pyrrolo[1,2-b]pyridazine-3-carboxamide] | – | 60 to 70 | < 0.5
7 | – | Cn1c(=O)n(C2CCC(=O)NC2=O)c2cccc(N3CCN(C4CCN(C[C@H]5CC[C@H](n6cc(-n7cc(-c8cnn9cc(C#N)cnc89)nn7)c(C(F)F)n6)CC5)CC4)CC3)c21 (some centres unmarked) [Compound 206] | 0.5 to 1 | < 60 | –
8 | – | Cn1c(=O)n(C2CCC(=O)NC2=O)c2cccc(NCCC3CC4(C3)CN(C[C@H]3CC[C@H](n5cc(-n6cc(-c7cnn8ccc(N9CCOCC9)nc78)nn6)c(C(F)F)n5)CC3)C4)c21 (some centres unmarked) [Example 26, 3-(4-((2-(2-(((1r,4r)-4-(3-(difluoromethyl)-4-(4-(5-morpholinopyrazolo[1,5-a]pyrimidin-3-yl)-1H-1,2,3-triazol-1-yl)-1H-pyrazol-1-yl)cyclohexyl)methyl)-2-azaspiro[3.3]heptan-6-yl)ehtyl)amino)-3-methyl-2-oxo-2,3-dihydro-1H-benzo[d]imidazol-1-yl)piperidine-2,6-dione] | – | 70 to 80 | < 0.5
9 | – | Cn1c(=O)n(C2CCC(=O)NC2=O)c2cccc(N3CCC4(CCN(C[C@H]5CC[C@H](n6cc(-n7cc(-c8cnn9ccc(N%10CCOCC%10)nc89)nn7)c(C(F)F)n6)CC5)CC4)C3)c21 (some centres unmarked) [Example 45] | – | 70 to 80 | < 0.5
